Measurements published in patent US20060165612A1, “Compositions for hygienic hand disinfection and disinfectant handwashing” (priority 2005, published 2006).

## CCCCC(CC)COCC(O)CO (stereo not shown) [1-(2-ethylhexyl)glycerol ether, 1-(2-Ethylhexyl)glycerol ether]
  solubility in water: 0.1 % by weight
